The values below come from patent publication US9895450B2, “Anti-wall teichoic antibodies and conjugates” (priority 2013, dated 2018).

The subject of series [1] is MRSA (NRS384 strain of USA300). Put plainly: MIC determinations for intracellular bacteria (inside mouse peritoneal macrophages). It counts as cell-based, S. aureus. The settings on record: for killing of intracellular MRSA sequestered inside macrophages: dose range including serum Cmax; for potency at killing intracellular MRSA as free antibiotics: tested as free antibiotics.

Series [2] has as its system USA300. The series can be described thus: intravenous infection model in Balb/c mice, pre-treatment. It is filed as in vivo. The settings on record: antibodies 50 mg/Kg IV 30 minutes prior to infection; vancomycin 110 mg/Kg twice daily IP; day 4. As for the experimental part: Balb/c mice were given a single dose of vehicle control (PBS) or 50 mg/Kg of antibodies by intravenous injection 30 minutes prior to infection with 2×10^7 CFU of USA300. […] Control mice were given twice daily treatments with 110 mg/Kg of vancomycin by intraperitoneal injection (Vanco). All mice were sacrificed on day 4 post-infection, and the total number of surviving bacteria in kidneys (2 kidneys pooled) was determined by plating.
(§1) Intravenous Infection Model: 7 week old female mice were used for all in vivo experiments and infections were carried out by intravenous injection into the tail vein. A/J mice (Jackson Lab) were infected with a dose of 2×10^6 CFU. Balb/c mice (Charles River Laboratories, Hollister, Calif.) were infected with a dose of 2×10^7 CFU. For studies examining the role of competing human IgG (SCID IVIG model), CB17.SCID mice (Charles River Laboratories, Hollister, Calif.) were reconstituted with GammaGard S/D IGIV Immune Globulin (ASD Healthcare, Brooks Ky.) using a dosing regimen optimized to achieve constant serum levels of >10 mg/mL of human IgG. […] The total number of bacteria recovered per mouse (2 kidneys) was determined by plating serial dilutions of the tissue homogenate in PBS 0.05% Tween on Tryptic Soy Agar with 5% defibrinated sheep blood.

The test system of series [3] is MRSA (USA300). The series can be described thus: intravenous infection model in CB17.SCID mice reconstituted with human IgG (SCID:huIgG). It counts as in vivo. The following applies: twice-daily 100 mg/Kg, treatment initiated more than 1 day post infection. As for the experimental part: To confirm that the AAC would be effective in the presence of competing human antibodies in vivo, the in vivo infection model was modified to generate mice that express normal levels of human IgG in the serum. […] Four days after infection the bacterial load in the kidneys (FIG. 10C) was assessed.
CB17.SCID mice were reconstituted with human IgG using a dosing regimen optimized to yield constant levels of at least 10 mg/mL of human IgG in serum.
Efficacy of the AAC was compared with that of treatment with vancomycin, the current standard of care treatment for MRSA infections. […]
CB17.SCID mice were reconstituted with human IgG using a dosing regimen optimized to yield constant levels of at least 10 mg/mL of human IgG in serum and infected with 2×10^7 CFU of USA300 by intravenous injection. […] The mice were sacrificed on day 4 post infection, and the total number of surviving bacteria in kidneys (2 kidneys pooled, FIG. 21) and heart (FIG. 22) was determined by plating.
Intravenous Infection Model: 7 week old female mice were used for all in vivo experiments and infections were carried out by intravenous injection into the tail vein. […] The total number of bacteria recovered per mouse (2 kidneys) was determined by plating serial dilutions of the tissue homogenate in PBS 0.05% Tween on Tryptic Soy Agar with 5% defibrinated sheep blood.

For series [4] the following is noted: clinically achieveable serum levels; cited from earlier work.
In series [5] the test system is MRSA. The following applies: vancomycin 2 and 20 μg/mL; rifampin 0.02 and 0.2 μg/mL; TSB.
Series [6] deals with MRSA. The series can be described thus: intravenous infection model in CB17.SCID mice, treatment 1 day after infection. It is filed as in vivo. The settings on record: AAC 50 mg/Kg or antibiotic 0.5 mg/Kg, 1 day post infection; kidneys day 4. As for the experimental part: One day after infection, the mice were treated with 50 mg/Kg of S4497 antibody, 50 mg/Kg of S4497 dimethyl-pipBOR AAC 105 or with 0.5 mg/Kg of dimethyl-pipBOR antibiotic 7, the equivalent dose of antibiotic that is contained in 50 mg/Kg of AAC). Mice were sacrificed 4 days after infection and the total number of surviving bacteria per mouse (2 kidneys pooled) was determined by plating.
as §1

Series [7] deals with MRSA (USA300 strain). The series can be described thus: in vitro macrophage assay (intracellular killing of opsonized MRSA). It is filed as cell-based, S. aureus. The following applies: 50 μg/mL; macrophages, osteoblasts (MG63), airway epithelial cells (A549), HUVEC.
Method: Isolation of Peritoneal Macrophages: Peritoneal macrophages were isolated from the peritoneum of 6-8 week old Balb/c mice (Charles River Laboratories, Hollister, Calif.). To increase the yield of macrophages, mice were pre-treated by intraperitoneal injection with 1 mL of thioglycolate media (Becton Dickinson). The thioglycolate media was prepared at a concentration of 4% in water, sterilized by autoclaving, and aged for 20 days to 6 months prior to use. Peritoneal macrophages were harvested 4 days post treatment with thioglycolate by washing the peritoneal cavity with cold phosphate buffered saline. Macrophages were plated in Dulbecco's Modified Eagle Medium (DMEM) supplemented with 10% Fetal Calf Serum, and 10 mM HEPES, without antibiotics, at a density of 4×10^5 cells/well in 24 well culture dishes. Macrophages were cultured over night to permit adherence to the plate. This assay was also utilized to test intracellular killing in non-phagocytic cell types. […]
Infection of Macrophages with Opsonized MRSA: The USA300 strain of MRSA (NRS384) was obtained from the NARSA repository (Chantilly, Va.). […] Serial dilutions of the lysate were made in phosphate buffered saline solution supplemented with 0.05% Tween-20 (to disrupt aggregates of bacteria) and the total number of surviving intracellular bacteria was determined by plating on Tryptic Soy Agar with 5% defibrinated sheep blood.
Series [8] relates to MRSA. The series can be described thus: growth inhibition assay / cathepsin release assay. It counts as cell-based, S. aureus. The settings on record: MRSA cultured overnight with up to 10 μg/mL of AAC. Here is the method: An AAC comprising antibody rF1, which binds to a family of cell wall associated proteins was conjugated to a rifamycin derivative. S. aureus (Newman strain) was treated with various doses of the rF1-AAC or with equivalent doses of either antibody alone, rifampicin alone or a mixture of antibody and free rifampicin to permit antibody binding to the bacteria (opsonization) and after 1 hour incubation the opsonized bacteria were fed to macrophages (FIG. 7A).
See: page 863 of Dubowchik et al (2002) Bioconj. Chem. 13:855-869, incorporated by reference for the purposes of this assay. Cathepsin B (from bovine spleen, SIGMA C7800) was added at 10 μg/mL and the samples were incubated for 1 hour at 37° C. As a control, AAC were incubated in buffer alone. The reaction was stopped by addition of 10 volumes of bacterial growth media, Tryptic Soy Broth pH 7.4 (TSB). To estimate the total release of active antibiotic, serial dilutions of the reaction mixture were made in quadruplicate in TSB in 96 well plates and the USA300 strain of S. aureus was added to each well at a final density of 2×10^3 CFU/mL. The cultures were incubated over night at […] with shaking and bacterial growth was measured by reading absorbance at 630 nm using a plate reader.

Series [9] concerns MRSA (USA300 strain). Put plainly: intravenous infection model in A/J mice. It is filed as in vivo. As for the experimental part:
Efficacy of the AAC in an intravenous infection model was also examined. In this model, S. aureus is taken up by circulating neutrophils shortly after infection such that the majority of bacteria found in blood are associated with host cells within minutes after infection (Rogers, et al (1956) J. Exp. Med. 103:713-742). A/J Mice were infected with 2×10^6 CFU of MRSA by intravenous injection, and then treated with 50 mg/Kg of AACs by intravenous injection 30 minutes post infection. In this model, the primary site of infection is the kidney, and mice develop large abscesses that are detectable by two days post infection and fail to be cleared for up to 30 days in the absence of treatment.
Treatments were delivered by IV injection 30 minutes post infection and kidneys were harvested 4 days post infection. The grey dashed line indicates the limit of detection for each organ.
Efficacy of AAC made with pipBOR and dimethyl-pipBOR antibiotic moieties was compared in vivo in the intravenous infection model in A/J mice. […] Seven week old female A/J Mice were infected with 2×10^6 CFU of MRSA (USA300 strain) by intravenous injection into the tail vein. […] Treatments with S4497 antibody, AAC 102 or AAC 105 were administered at the indicated doses 30 minutes after infection. Mice were sacrificed 4 days after infection and the total number of surviving bacteria per mouse (2 kidneys pooled) was determined by plating.
Intravenous Infection Model: 7 week old female mice were used for all in vivo experiments and infections were carried out by intravenous injection into the tail vein. A/J mice (Jackson Lab) were infected with a dose of 2×10^6 CFU. Balb/c mice (Charles River Laboratories, Hollister, Calif.) were infected with a dose of 2×10^7 CFU. […] The total number of bacteria recovered per mouse (2 kidneys) was determined by plating serial dilutions of the tissue homogenate in PBS 0.05% Tween on Tryptic Soy Agar with 5% defibrinated sheep blood.

`CCCCCCCCCC(=O)N[C@@H](Cc1c[nH]c2ccccc12)C(=O)N[C@H](CC(N)=O)C(=O)N[C@@H](CC(=O)O)C(=O)N[C@@H]1C(=O)NCC(=O)N[C@@H](CCCN)C(=O)N[C@@H](CC(=O)O)C(=O)N[C@H](C)C(=O)N[C@@H](CC(=O)O)C(=O)NCC(=O)N[C@H](CO)C(=O)N[C@@H]([C@H](C)CC(=O)O)C(=O)N[C@@H](CC(=O)c2ccccc2N)C(=O)O[C@@H]1C` [Daptomycin, daptomycin]: the “killing of intracellular MRSA sequestered inside macrophages” value in [1] is given as “failed to kill”.

As to `CC(=O)NC[C@H]1CN(c2ccc(N3CCOCC3)c(F)c2)C(=O)O1` [Linezolid, linezolid], in [1] (Staphylococcus aureus, MRSA inside mouse peritoneal macrophages, antibiotic added 1 day after infection, survival 24 hours later), the MIC is > 20 µg/mL. In series [1], the “killing of intracellular MRSA sequestered inside macrophages” value is reported as “failed to kill”.

With `CN[C@H](CC(C)C)C(=O)N[C@H]1C(=O)N[C@@H](CC(N)=O)C(=O)N[C@H]2C(=O)N[C@H]3C(=O)N[C@H](C(=O)N[C@H](C(=O)O)c4cc(O)cc(O)c4-c4cc3ccc4O)[C@H](O)c3ccc(c(Cl)c3)Oc3cc2cc(c3O[C@@H]2O[C@H](CO)[C@@H](O)[C@H](O)[C@H]2O[C@H]2C[C@](C)(N)[C@H](O)[C@H](C)O2)Oc2ccc(cc2Cl)[C@H]1O` [Vancomycin, vancomycin], the “effect of pre-treatment on bacterial loads in kidneys” value in series [2] is listed as “cleared the infection in all of the mice tested”. Further, the “reduction of bacterial loads” value in series [3] is on record as “about 50 fold”. In addition, the “Serum Cmax” value in series [4] was 10000 to 40000 ng/mL. In series [5], the “bacteria remaining viable during the first two hours of antibiotic treatment” value worked out at 90% and the “loss in viable bacteria by 5 hours” value is reported as 100 fold. In addition, the “killing of intracellular MRSA sequestered inside macrophages” value in series [1] was “failed to kill”.

Consider `CO[C@H]1/C=C/O[C@@]2(C)Oc3c(C)c(O)c4c(=O)c(c5oc6cc(N7CCC(N(C)C)CC7)cc(O)c6nc-5c4c3C2=O)NC(=O)/C(C)=C\C=C\[C@H](C)[C@H](O)[C@@H](C)[C@@H](O)[C@@H](C)[C@H](OC(C)=O)[C@@H]1C` [dimethyl-pipBOR, dimethylpiperidyl benzoxazino rifamycin], for which the “efficacy against established infection” value in series [6] was “failed to clear the infection”. In addition, the “potency at killing intracellular MRSA as free antibiotics” value in series [1] is given as “more potent than rifampicin”.

For the compound “piperidyl benzoxazino rifamycin [pipBOR]”, the “potency at killing intracellular MRSA as free antibiotics” value in series [1] is on record as “more potent than rifampicin”.

With “thio-S4497-HC-A118C-MC-vc-PABC-(pipBOR) [rifa-102]”, the “intracellular killing of MRSA” value in series [7] was “effectively killed”. For the same compound, the “inhibition of bacterial growth by intact AAC” value in series [8] is reported as “did not result in inhibition of bacterial growth unless the AACs were pre-treated with cathepsin B”. Besides, the “efficacy at the highest dose” value in series [9] (50 mg/Kg) was “effective”. Moreover, in series [9] (50 mg/Kg IV 30 minutes post infection, kidneys 4 days post infection), the “efficacy in kidney infection” value is given as “cleared the infection in all of the mice tested”. For the same compound, the “efficacy at lower doses” value in [9] (doses below 50 mg/Kg) is reported as “only partially efficacious”.
